Measured values taken from ChEMBL document CHEMBL1143846, “Clinical pharmacodynamics of meropenem in patients with lower respiratory tract infections” (Antimicrob Agents Chemother, 2007).
≈ marks a conversion by molar mass, not a printed value.

Tests used:
Homo sapiens [1] = species: Homo sapiens; experiment: fAUC in patient with lower respiratory tract infection; format: ADME, organism-based; settings: in vivo
[2] = Ratio of fCmax to MIC in patient with lower respiratory tract infection; format: ADME; settings: human
Haemophilus influenzae = experiment: Antimicrobial activity against Haemophilus influenzae; format: functional
Streptococcus pneumoniae = experiment: Antimicrobial activity against Streptococcus pneumoniae; format: functional
[3] = Ratio of fAUC to MIC in patient with lower respiratory tract infection; format: ADME; settings: human
Pseudomonas aeruginosa = experiment: Antimicrobial activity against Pseudomonas aeruginosa; format: functional
[4] = Ratio of fCmin to MIC in patient with lower respiratory tract infection; format: ADME; settings: human
Klebsiella pneumoniae = experiment: Antimicrobial activity against Klebsiella pneumoniae; format: functional
Staphylococcus aureus = experiment: Antimicrobial activity against methicillin-susceptible Staphylococcus aureus; format: functional
Homo sapiens [5] = species: Homo sapiens; experiment: ft>MIC in patient with lower respiratory tract infection; format: ADME, organism-based; settings: in vivo
Homo sapiens [6] = species: Homo sapiens; experiment: fCmax in patient with lower respiratory tract infection; format: ADME, organism-based; settings: in vivo
Homo sapiens [7] = species: Homo sapiens; experiment: fCmin in patient with lower respiratory tract infection; format: ADME, organism-based; settings: in vivo

fAUC (Homo sapiens [1]): 157.43 µg·h/mL
Ratio [2]: 1427.66
MIC (Haemophilus influenzae): 0.06 µg/mL (≈ 0.156 µM)
MIC (Streptococcus pneumoniae): 0.06 µg/mL (≈ 0.156 µM)
Ratio [3]: 6683.38
MIC (Pseudomonas aeruginosa): 0.06 µg/mL (≈ 0.156 µM)
Ratio [4]: 34.24
MIC (Klebsiella pneumoniae): 0.06 µg/mL (≈ 0.156 µM)
MIC (Staphylococcus aureus): 0.06 µg/mL (≈ 0.156 µM)
fT>MIC (Homo sapiens [5]): 91%
fCmax (Homo sapiens [6]): 32.27 µg/mL
fCmin (Homo sapiens [7]): 0.91 µg/mL
SMILES: C[C@@H](O)[C@H]1C(=O)N2C(C(=O)O)=C(S[C@@H]3CN[C@H](C(=O)N(C)C)C3)[C@H](C)[C@H]12 [MEROPENEM]
